Residues, ends and D or L forms follow the SMILES beside them.
Experiments:
Format in all cases: cell-based, human
MMP-2 = assay: Gelatin zymography of conditioned media, MMP-2 production; details: for metalloprotease production, MMP-2: compared to control containing no peptide
From the text: To assess whether the peptide SEQ ID NO.1 impacted MMP-2, MMP-9 and uPA production Zymography was used.
Zymography is a technique for studying hydrolytic enzymes on the basis of substrate degradation. The in-gel zymography hydrolytic enzymes are separated by their molecular weights and detected by their ability to degrade a substrate. To detect the activity of MMP-2 and MMP-9 in various cell lines, conditioned media were collected in 3 independent experiments and analysed by gelatin zymography to quantify the level of gelatin digestion, which reflects MMP-2 and MMP-9 activity and production. Casein-Plasminogen zymography was conducted to determine the activity level of uPA in the conditioned medium from various cell lines. Active uPA converts plasminogen into plasmin which then digests casein, thus clear bands where digestion of casein have occurred indirectly represent uPA activity.
The effect of the peptides on matrix protease production was tested using in-gel zymography. If the substrate included in the gel is gelatin, the enzymes detected are gelatinases: MMP-2 and MMP-9 (the latter is often of low abundance). If the gel contains casein and plasminogen, the enzymes tested are urokinase plasminogen activators (uPA); uPA is a therapeutic target in GBM.
An equal amount of protein from each sample was mixed with 5 μL of Laemmli buffer (0.01% Bromophenol Blue (W/V), 5% SDS (W/V), 22% glycerol (V/V), 14% 0.5 M Tris pH 6.8 (V/V)) and loaded onto a 10% polyacrylamide gel co-polymerized with 1 mg/ml of gelatin, and electrophoresed at 120 V for 2 hours on ice. The gel was incubated in […] solution (Triton X-100 2.5% (V/V), 1 M Tris pH 7.5 5% (V/V), 0.5 M CaCl2 1% (W/V) at room temperature overnight on an orbital shaker. The gel was incubated in a second solution for 3 hours at 37° C. The gel was then stained with Coomassie blue solution (Coomassie blue 0.25%, methanol 45%, acetic acid 10%) and destained in methanol 25% (V/V), acetic acid 10% (V/V) destaining solution until clear bands against the dark background appeared around 72 kDa and 95 kDa, representing MMP-2 and MMP-9 activity, respectively. Clear bands around 50 kDa appeared against the dark background representing uPA activity. The gels were scanned, and uPA, MMP-2 and MMP-9 were quantified by densitometry using NIH Image J software.
SEQ ID NO.1 was compared to a control containing no peptide to evaluate whether the peptide can reduce the production of matrix proteinases. […] This could be confirmed using a MMP-9 quantification kit, and altered production by a transcriptional mechanism can be unveiled using qRT-PCR.

U251 cells = assay: BME cell invasion assay, U251; details: 24 h
Protocol: (§1) To assess whether the ability of SEQ ID NO.1 to inhibit MMP-2 activity and, to a lesser extent, reduce the production of matrix proteinases and downregulate the expression of EMT markers, was of functional consequence in reducing the invasiveness of the GBM cells, the ability of the peptide was tested at the concentrations of 1, 10 and 100 μM (none of which are toxic to cells) to inhibit invasion of the GBM cells through a basement membrane. This assay, described in more detail below, is an in vitro surrogate for measurement of the in vivo invasion by tumour cells of their environment.
(§2) The cell invasion assay employs a simplified Boyden chamber-like design that consists of two chambers separated by a filter (an 8 μm polycarbonate (PC) membrane) coated with basement membrane or different extracellular matrix components. The cell suspension is placed in the top chamber and incubated in the presence of test media containing specific chemo-attractants in the bottom chamber. Cells migrate from the top chamber to the bottom of the filter by degrading the coating over the filter pores. Detection of cell invasion is quantified using Calcein AM. Cell dissociation/Calcein AM solution is placed in the bottom chamber to dissociate the migrating cells from the filter. Calcein AM is internalized by the cells, and intracellular-esterases cleave the aceto-methylester (AM) moiety. Free Calcein fluoresces brightly and is used to quantitate the number of cells that have invaded or migrated by comparison with a standard curve (In Vitro Technologies Pty Ltd, (https://lifescience.invitro.com.au/brands/r-and-d-systems/).
(§3) The filter was coated with PathClear® growth factor reduced BME. The selected peptides were applied to the cells in both upper and lower wells to make sure the concentration of peptides were the same and the chemoattractant was serum at a concentration of 2% (for adherent U87 & U251 cells) or growth factor mix required in the medium (for non- adherent, 081024 oncospheres).
(§4) Cell invasion was determined using CultureCoat® 96 Well Medium BME Cell Invasion assay. Briefly, the cells were pre-starved 24 h before harvest. Then seeding 25,000 per well of cell in the upper chamber with serum free medium together different concentration of peptide. The bottom chamber also added different concentration of peptides with 2% (V/V) serum for GBM adherent cells or growth factor mix for neurosphere cells as chemoattractant. After 24 h incubation, the invading cells were measured by Calcein AM and calculated based on standard curve.
(§5) The results are shown in Table 12, the results are expressed as % inhibition.

081024 cells = assay: BME cell invasion assay, 081024; details: 24 h
Protocol: as §1, §2, §3, §4, §5

CC(C)C[C@@H]1NC(=O)[C@H](C)NC(=O)[C@@H](NC(=O)[C@@H]2CCCN2C(=O)[C@@H](N)CC(C)C)CSSC(C)(C)CNC(=O)CC[C@@H](C(=O)N[C@@H](CCCNC(=N)N)C(N)=O)NC(=O)[C@H](CC(=O)O)NC(=O)[C@H](CC(N)=O)NC1=O [SEQ ID NO: 1, Leu-Pro-c(SSA*-Ala-Leu-Asn-Asp-Glu)-Arg-NH2] (HELM PEPTIDE1{L.P.C.A.L.N.D.E.R.[am]}|CHEM1{[CC(C)(CN[*:2])S[*:1]]}$PEPTIDE1,CHEM1,3:R3-1:R1|PEPTIDE1,CHEM1,8:R3-1:R2$$$V2.0; N-terminus assumed)
metalloprotease production, MMP-2 (MMP-2; 081024 cells): 106.4
metalloprotease production, MMP-2 (MMP-2; U87 cells): 102.1
metalloprotease production, MMP-2 (MMP-2; U251 cells): 110.2
production of MMP-2 (overall, in words) (MMP-2; overall, all cell lines): did not decrease
Invasion Inhibition Index (%) (U251 cells; 1 μM): 13.2%
Invasion Inhibition Index (%) (U251 cells; 10 μM): 17.8%
Invasion Inhibition Index (%) (U251 cells; 100 μM): 26.7%
Invasion Inhibition Index (%) (081024 cells; 1 μM, listed as SEQ ID NO. 1): 39.9%
Invasion Inhibition Index (%) (081024 cells; 1 μM, listed as SEQ ID NO.1): fairly comparable to that of Chlorotoxin
Invasion Inhibition Index (%) (081024 cells; 10 μM): 50.8%
Invasion Inhibition Index (%) (081024 cells; 100 μM): 58.3%
